Measurements from patent US20180036270A1, “A METHOD OF PROTECTING AGAINST CARBONYL STRESS INDUCED ISCHEMIA-REPERFUSION INJURY IN THE DIABETIC BRAIN VIA ADMINISTRATION OF N-ACETYLCYSTEINE” (Board of Supervisors of Louisiana State University and …, priority 2015, published 2018).
Entries after “also recorded” stand apart in the source; their conditions may differ.

Key:
[1] = test system: brain protein carbonyl contents; test: Assay of brain protein carbonyls; assay type: in vivo, mouse; details: 2 week diabetic mice, NAC 1 week
Description: The extent of protein glycation was determined by measuring total protein carbonyl contents. Briefly, the brain homogenate was incubated with 10 mM of 2, 4-dinitro-phenylhydrazine (DNPH) in 2M hydrochloride acid (1:2 volume) for 1 h followed by precipitation with trichloroacetic acid (final concentration 10%). Following centrifugation, the precipitant was washed 3 times with ethanol-ethyl acetate (1:1) to remove free DNPH. The pellets were redissolved in 0.6 ml of 6 M guanidine hydrochloride solution containing 20 mM potassium phosphate (pH=2.3 adjusted with trifluoroacetic acid) at 37° C., and the insoluble materials were removed by centrifugation for 3 min at 11000 g. The absorbance was monitored at 366 nm, and protein carbonyl contents quantified using the extinction coefficient of 22000 M^−1 cm^−1.

[2] = test system: platelet-leukocyte aggregates (PLAs); test: Platelet-leukocyte aggregate formation in STZ diabetic mice; assay type: in vivo, mouse; details: 5 and 19 week diabetic mice; NAC 2 mM for 2 weeks
Description: Turning to FIGS. 25A-25D, the percent of circulating leukocytes forming aggregates with platelets at 5 weeks of diabetes is shown (FIG. 25A). Aggregate formation between platelets and leukocyte subpopulations include: lymphocytes (FIG. 25B), neutrophils (FIG. 25C) and monocytes (FIG. 25D). Non-diabetic (vehicle-treated (Veh)), diabetic (STZ) and diabetic mice treated with NAC (2 mM for 2 weeks) were assessed. Turning to FIGS. 26A-26D, the percent of circulating leukocytes forming aggregates with platelets at 19 weeks of diabetes is shown (FIG. 26A). Aggregate formation between platelets and leukocyte subpopulations include: lymphocytes (FIG. 26B), neutrophils (FIG. 26C) and monocytes (FIG. 26D). Non-diabetic (vehicle-treated (Veh)), diabetic (STZ) and diabetic mice treated with NAC (2 mM for 2 weeks) were assessed.

CC(=O)N[C@@H](CS)C(=O)O [NAC, N-acetylcysteine]
brain protein carbonyl contents [1]: highly effective in attenuating; also recorded: decreased significantly; also recorded: significantly attenuated
platelet-leukocyte aggregate (PLA) formation [2]: effectively normalized
